Where “and” joins values, the source holds several entries; their conditions need not be identical. Equal entries are not always repeated. Square brackets hold non-standard residues; d marks the D form. Peptide text beside a SMILES is read from it.
How the values were obtained:
[1] = target: T1, recombinant human cGAS enzyme (hcGAS-ΔN, residues 147–522) (Homo sapiens, UniProt Q8N884); test: RNA-based fluorescent biosensor assay of cGAS activity (2',3'-cGAMP formation), in vitro screening; assay type: biochemical; conditions: for Remaining activity (%), Fig. 1a source data / remaining activity at 20 µM: 20 μM, replicate values; for remaining activity at 20 µM: read-out: Remaining activity (%), Fig. 1a source data; for Inhibition % / inhibition at 20 µM: peptides screened at 20 μM, Supplementary Table 1 / Fig. S5b; for Inhibition %: 20 µM; for inhibition at 20 µM: read-out: Inhibition %
T1 construct: N-terminally truncated human cGAS (hcGAS-ΔN, residues 147–522); 6xHis-SUMO (N, cleaved yes); made in house; host or cells: Escherichia coli BL21 (DE3)
T1 sequence (Q8N884 147-522, stated change not applied): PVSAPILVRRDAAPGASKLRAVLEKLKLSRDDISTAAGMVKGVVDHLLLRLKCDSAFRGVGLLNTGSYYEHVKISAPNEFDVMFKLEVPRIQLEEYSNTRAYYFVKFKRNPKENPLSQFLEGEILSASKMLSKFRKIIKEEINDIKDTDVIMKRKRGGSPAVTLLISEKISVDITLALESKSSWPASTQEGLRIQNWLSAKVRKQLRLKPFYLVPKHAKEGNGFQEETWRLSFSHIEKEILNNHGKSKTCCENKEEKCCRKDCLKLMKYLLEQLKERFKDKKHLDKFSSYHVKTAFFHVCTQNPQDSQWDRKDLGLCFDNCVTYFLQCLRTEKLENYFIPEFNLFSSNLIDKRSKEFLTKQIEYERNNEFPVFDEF
Outline: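 In 40 mM Tris-HCl pH 7.5, 100 mM NaCl, 10 mM MgCl2, ISD (0.5 μM) started the reaction with hcGAS-ΔN (1.5 μM), ATP (1 mM) and GTP (1 mM). Incubation was 2 h at 37 °C, with compounds screened at 20 μM. 2',3'-cGAMP formed was quantified with an RNA-based fluorescent biosensor.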

[2] = system: dsDNA-stimulated THP1 cells; test: qPCR of IFNB1/CXCL10/IL6 mRNA in THP1 cells stimulated by dsDNA (ISD, HSV60mer); assay type: cell-based, human; conditions: THP1, dsDNA 6 h; hits 10 μM; replicate values
Text: (§1) To screen direct cGAS inhibitors targeting protein-DNA interface from our developed focused library of macrocyclic peptides, we applied an RNA-based fluorescent biosensor for 2’,3’-cGAMP to detect cGAS activity in vitro (Supplementary Fig. 1a)[49]. The formation of 2’,3’-cGAMP from ATP and GTP was catalyzed by recombinant human cGAS enzyme (hcGAS-ΔN, residues 147–522, Supplementary Fig. 1b) in the presence of ISD (interferon stimulatory DNA, a 45-bp dsDNA), which was readily quantified by the RNA-based fluorescent biosensor and was further confirmed by ion exchange chromatography (Supplementary Fig. 1c). […] Subsequently, a total of 90 macrocyclic peptides were screened at a concentration of 20 μM (Fig. 1a and Supplementary Fig. 1e), and 4 hits (XQ2, XQ8, XQ19, and XQ46) were obtained for further testing at a cut-off of 40% inhibition (Supplementary Table 1). To evaluate the inhibitory effect of the hits against cGAS in cells, we employed real-time quantitative PCR (qPCR) to examine mRNA levels of IFNΒ1 in THP1 cells. The reported cGAS inhibitor RU.521 was used as the positive control, and the non-active peptide XQ28 in the screening assay was used as the negative control. […] The inhibition of cGAS by these hits was further confirmed in the reporter cell line THP1-Lucia ISG (Invivogen) that expresses secreted luciferase induced by an IRF3-inducible ISG54 promoter (Fig. 1c). The discrepancy between the inhibitory effect of the hits in protein and cellular assays may be attributed to their different cellular permeability.
The indicated cells were stimulated with either ISD (Sangon Biotech), HSV-1 (Provided by Dr. Zhengfan Jiang), HSV60mer (Sangon Biotech), SATE-cddA[70], 2’3’-cGAMP (Invivogen, Cat# tlrl-nacga23-1), ADU-S100 (MedChemExpress, Cat# HY-12885A) or Poly(I:C) (Invivogen, Cat# tlrl-pic) after XQ2 or XQ2B treatment. Total RNA was isolated from indicated cells that incubated with the drugs for indicated time or mice tissues by using NucleoZOL reagent (MACHEREY-NAGEL) according to the manufacturer’s instructions. The quantifications of mRNA levels were carried out by real-time PCR using a PerfectStart® Uni RT&qPCR Kit (TransGen Biotech) on the QuantStudio 5 qPCR machine (Applied Biosystems). Samples were carried out in triplicate and the target CT values were normalized to GAPDH CT values. Primers of qPCR used in this study can be found in Supplementary Table S2.

THP1-Lucia ISG cells = test: Luciferase reporter assay, dsDNA stimulation; assay type: cell-based, human; parameters: Type I interferon response, luciferase activity, Fig. 1c / luciferase activity, Fig. 2a: scale not given here; conditions: dsDNA 24 h; replicate values
Text: as §1
THP1-Lucia ISG cells (Invivogen) were seeded into a 96-well plate and incubated with RU.521 (Invivogen) or XQ2 for the indicated time, and then transfected with dsDNA by lipofectamine 2000 (Invitrogen) or infected by HSV-1 with the indicated titer for 24 h. The supernatant was collected and 50 μL QUANTI-Luc Luciferase reagent (Invivogen) was added to 20 μL supernatants per well, and luciferase luminescence was detected by a microplate reader (BioTek Synergy H1) immediately.

Row | Compound | Remaining activity (%), Fig. 1a source data [1] | remaining activity at 20 µM [1] [%] | Inhibition % [1] [%] | inhibition at 20 µM [1] [%] | IFNB1 mRNA, qPCR, Fig. 1b [2] | Type I interferon response, luciferase activity, Fig. 1c (THP1-Lucia ISG cells) | cGAS activity in the biosensor assay [1]
1 | CC(C)C[C@@H]1NC(=O)[C@H](CCCNC(=N)N)NC(=O)[C@H](C(C)C)NC(=O)[C@H](C)NC(=O)[C@@H](Cc2ccccc2)NC(=O)[C@H](CC(C)C)NC(=O)[C@H](CCCNC(=N)N)NC(=O)[C@H](C(C)C)NC(=O)[C@H](C)NC(=O)[C@@H](Cc2ccccc2)NC1=O [XQ8, Cyclo (LfAVRLfAVR)] (cyclo(AVRL[dF]AVRL[dF])) | 48.5808% and 47.6977% | 48.8 | ≥ 40 | 52 | 50.5074 and 61.5926 and 57.7936 | 1.122 and 0.7764 and 0.491 | –
2 | CC(C)C[C@@H]1NC(=O)[C@H](CCCNC(=N)N)NC(=O)[C@H](C(C)C)NC(=O)[C@@H]2CCCN2C(=O)[C@@H](Cc2ccccc2)NC(=O)[C@H](C)NC(=O)[C@H](CCCNC(=N)N)NC(=O)[C@H](C(C)C)NC(=O)[C@H](C)NC(=O)[C@@H](Cc2ccccc2)NC1=O [XQ19, Cyclo (AfPVRLfAVR)] (cyclo(AVRA[dF]PVRL[dF])) | 39.7338% and 39.7351% | 40.1 | ≥ 40 | 60 | 69.3649 and 64.1779 and 70.7063 | 0.9185 and 0.6328 and 0.8726 | –
3 | N=C(N)NCCC[C@@H]1NC(=O)[C@@H]2CCCN2C(=O)[C@H](Cc2ccccc2)NC(=O)[C@H](CCCNC(=N)N)NC(=O)[C@@H]2CCCN2C(=O)[C@H](Cc2ccccc2)NC1=O [XQ28, Cyclo (RFPRFP)] (cyclo(FPRFPR)) | 109.037% and 108.058% | 107 | – | 0 | 80.7818 and 80.352 and 88.8517 | 1.441 and 0.666 and 1.434 | non-active
4 | CC(C)C[C@@H]1NC(=O)[C@H](CC(C)C)NC(=O)[C@H](C(C)C)NC(=O)[C@@H]2CCCN2C(=O)[C@@H](Cc2ccccc2)NC(=O)[C@H](C)NC(=O)[C@H](CCCNC(=N)N)NC(=O)[C@H](C(C)C)NC(=O)[C@@H]2CCCN2C(=O)[C@@H](Cc2ccccc2)NC1=O [XQ46, Cyclo (AfPVLLfPVR)] (cyclo(A[dF]PVLL[dF]PVR)) | 43.44% and 43.4055% | 43.8 | ≥ 40 | 56 | 39.5997 and 41.1038 and 45.9315 | 0.8903 and 0.5111 and 0.5713 | comparable inhibitory activity as that of XQ2, XQ8 and XQ19

— paper PMC10545747, “Development of cyclopeptide inhibitors of cGAS targeting protein-DNA interaction and phase separation” (Nature Communications, 2023)
